Experimental data reported in patent US12552797B2, “Process for making (3-[cyclopropylethoxy(difluoro)methyl]-6-6[5-fluoro-6-(2,2,2-trifluoroethoxy-3-pyridyl]- [1,2,4]triazolo[4,3-a]pyrazine” (Praxis Precision Medicines, Inc., priority 2019, dated 2026).
Several values for one entry are separate records, joined by “and”; a condition that tells them apart may be missing. Identical values can stand only once.

Columns and labels:
[1] = Particle size distribution (PSD) of Compound 1 before and after manual or jet milling (Sympatec HELOS, dry method); type: physicochemical
Procedure: Compound 1 was milled by manual milling or jet milling to reduce particle size. For manual milling, Compound 1 was weighed into a ceramic motor and gentle milled for ˜5 mins. Particle size distribution (PSD) of Compound 1 indicated D90=77.82 μm and D90=28.27 μm before and after manual milling of Compound 1. PSD via dry method was conducted by Sympatec HELOS particle size analyzer, and dispersing system and pressure were RODOS and 0.5 bar, respectively.
For jet milling, Compound 1 was micronized by jet milling with a yield of ˜90%. Particle size of the jet-milled material was reduced to a D90 range of 4.7 to 13.5 μm.

[2] = Stability of suspension formulations in 0.5% MC 400 cP/0.2% Tween 80 (HPLC, PSD); type: physicochemical
Procedure: For stability and purity testing of Compound 1 a high-performance liquid chromatography (HPLC) method was developed. The HPLC method used for chemical stability and purity testing was as follows:
To prepare suspension formulations of Compound 1, about 0.5 mg, 5 mg and 10 mg of Compound 1 were weighted into separate vials and 1 mL 0.5% MC 400 cP/0.2% Tween 80 was added to each vial. The materials were mixed together by Vortex and stirred at room temperature overnight (24 hrs). The stability of the suspension formulations was measured by quantifying the purity of Compound 1 using high pressure liquid chromatography (HPLC). […]
To prepare a suspension formulation comprising jet-milled Compound 1, 15 mg of jet-milled Compound 1 was weighed into a glass vial and then 10 mL of vehicle (0.5% MC 400 cP/0.2% Tween 80) was added to disperse it to reach Compound 1 concentration of 1.5 mg/mL. The suspension was thoroughly dispersed by homogenization for ˜30 seconds. The stability of the suspension was evaluated by HPLC and particle size distribution (PSD), and the results are summarized in Table 7. Based on HPLC and PSD, the suspension formulation comprising jet-milled Compound 1 was stable at ambient condition for 28 days.

[3] = jet milled, 0.5% MC 400 cP/0.2% Tween 80, target 1.5 mg/mL, 1 day
[4] = jet milled, 0.5% MC 400 cP/0.2% Tween 80, target 1.5 mg/mL, 6 days
[5] = jet-milled, 0.5% MC 400 cP/0.2% Tween 80, target 1.5 mg/mL, RT, Initial
[6] = jet-milled, 0.5% MC 400 cP/0.2% Tween 80, target 1.5 mg/mL, RT, day 1
[7] = jet-milled, 0.5% MC 400 cP/0.2% Tween 80, target 1.5 mg/mL, RT, day 2
[8] = jet-milled, 0.5% MC 400 cP/0.2% Tween 80, target 1.5 mg/mL, RT, day 3
[9] = jet-milled, 0.5% MC 400 cP/0.2% Tween 80, target 1.5 mg/mL, RT, day 6
[10] = jet-milled, 0.5% MC 400 cP/0.2% Tween 80, target 1.5 mg/mL, RT, day 7
[11] = jet-milled, 0.5% MC 400 cP/0.2% Tween 80, target 1.5 mg/mL, RT, day 14
[12] = jet-milled, 0.5% MC 400 cP/0.2% Tween 80, target 1.5 mg/mL, RT, day 21
[13] = jet-milled, 0.5% MC 400 cP/0.2% Tween 80, target 1.5 mg/mL, RT, day 28
[14] = un-milled, 0.5% MC 400 cP/0.2% Tween 80, target 0.5 mg/mL, 1 hr
[15] = un-milled, 0.5% MC 400 cP/0.2% Tween 80, target 0.5 mg/mL, 4 hrs
[16] = un-milled, 0.5% MC 400 cP/0.2% Tween 80, target 0.5 mg/mL, 7 days
[17] = un-milled, 0.5% MC 400 cP/0.2% Tween 80, target 5 mg/mL, 4 hrs
[18] = un-milled, 0.5% MC 400 cP/0.2% Tween 80, target 5 mg/mL, 7 days
[19] = un-milled, 0.5% MC 400 cP/0.2% Tween 80, target 10 mg/mL, 1 hr
[20] = un-milled, 0.5% MC 400 cP/0.2% Tween 80, target 10 mg/mL, 4 hrs
[21] = un-milled, 0.5% MC 400 cP/0.2% Tween 80, target 10 mg/mL, 7 days

D10 ([1]; after jet milling, batch 1): 0.7 μm
D50 ([1]; after jet milling, batch 1): 1.8 μm
D90 ([1]; after jet milling, batch 1): 4.7 μm
D10 ([1]; after jet milling, batch 2): 1.1 μm
D50 ([1]; after jet milling, batch 2): 3.7 μm
D90 ([1]; after jet milling, batch 2): 8.3 μm
D10 ([1]; after jet milling, batch 3): 0.87 μm
D50 ([1]; after jet milling, batch 3): 5.58 μm
D90 ([1]; after jet milling, batch 3): 13.5 μm
D10 ([1]; after manual milling): 0.8 μm
D50 ([1]; after manual milling): 3.6 μm
D90 ([1]; after manual milling): 28.27 μm and 28.3 μm
D10 ([1]; before milling): 1.8 μm
D50 ([1]; before milling): 22.2 μm
D90 ([1]; before milling): 77.82 μm and 77.8 μm
D10 ([1]; before milling, batch 1): 1.8 μm
D50 ([1]; before milling, batch 1): 15.4 μm
D90 ([1]; before milling, batch 1): 80.9 μm
D10 ([1]; before milling, batch 2): 13.2 μm
D50 ([1]; before milling, batch 2): 67.3 μm
D90 ([1]; before milling, batch 2): 162.1 μm
D10 ([1]; before milling, batch 3): 14.6 μm
D50 ([1]; before milling, batch 3): 56.8 μm
D90 ([1]; before milling, batch 3): 104 μm
appearance of suspensions ([2]; 0.5, 5 and 10 mg/mL in 0.5% MC 400 cP/0.2% Tween 80, room temperature): homogenous suspensions
Concentration [2, 3]: 1440 µg/mL
Purity [2, 3]: 99.4%
Concentration [2, 4]: 1430 µg/mL
Purity [2, 4]: 99.5%
Appearance [2, 5]: Homogeneous
Conc. [2, 5]: 1610 µg/mL
Purity [2, 5]: 99.43%
Appearance [2, 6]: Homogeneous
Conc. [2, 6]: 1440 µg/mL
Purity [2, 6]: 99.44%
Appearance [2, 7]: Homogeneous
Conc. [2, 7]: 1380 µg/mL
Purity [2, 7]: 99.52%
Appearance [2, 8]: Homogeneous
Conc. [2, 8]: 1580 µg/mL
Purity [2, 8]: 99.49%
Appearance [2, 9]: Homogeneous
Conc. [2, 9]: 1430 µg/mL
Purity [2, 9]: 99.51%
Appearance [2, 10]: Homogeneous
Conc. [2, 10]: 1610 µg/mL
Purity [2, 10]: 99.55%
Appearance [2, 11]: Homogeneous
Conc. [2, 11]: 1610 µg/mL
Purity [2, 11]: 99.36%
Appearance [2, 12]: Homogeneous
Conc. [2, 12]: 1560 µg/mL
PSD (D90) [2, 12]: 6.97 um
Purity [2, 12]: 99.58%
Appearance [2, 13]: Homogeneous
Conc. [2, 13]: 1640 µg/mL
PSD (D90) [2, 13]: 6.80 um
Purity [2, 13]: 98.96%
stable at ambient condition (HPLC and PSD) ([2]; suspension of jet-milled Compound 1, 1.5 mg/mL, 0.5% MC 400 cP/0.2% Tween 80): 28 days
Concentration [2, 14]: 580 µg/mL
Purity [2, 14]: 97.46%
Concentration [2, 15]: 450 µg/mL
Purity [2, 15]: 96.65%
Concentration [2, 16]: 490 µg/mL
Purity [2, 16]: 97.85%
Purity ([2]; un-milled, 0.5% MC 400 cP/0.2% Tween 80, target 5 mg/mL, 1 hr): 97.60%
Concentration [2, 17]: 4720 µg/mL
Purity [2, 17]: 97.84%
Concentration [2, 18]: 5060 µg/mL
Purity [2, 18]: 96.95%
Concentration [2, 19]: 9690 µg/mL
Purity [2, 19]: 96.86%
Concentration [2, 20]: 9790 µg/mL
Purity [2, 20]: 97.12%
Concentration [2, 21]: 9720 µg/mL
Purity [2, 21]: 96.71%
SMILES: CCOC(F)(F)c1nnc2cnc(-c3cnc(OCC(F)(F)F)c(F)c3)cn12 [Compound 1, 3-(ethoxydifluoromethyl)-6-(5-fluoro-6-(2,2,2-trifluoroethoxy)pyridin-3-yl)-[1,2,4]triazolo[4,3-a]pyrazine]
